In patent US12565522B2, “Micropeptide HMMW and application thereof” (NANJING ANJI BIOTECHNOLOGY CO., LTD., priority 2019, dated 2026):
No end group written: not given here.

How the values were obtained:
Type in all cases: cell-based, human
Settings in all cases: 24 h
[1] = system: MDA-MB-231 cells of breast cancer; test: Matrigel transwell invasion test
Protocol: (§1) Dilute 10 mg/mL Matrigel with culture medium at 1:3, spread it on membranes of transwell cells and dry it in the air at room temperature. Use trypsin to digest and collect SCC4 cells of head and neck cancer, SW579 cells of thyroid cancer, A549 cells of lung cancer, TE13 cells of esophageal squamous cell carcinoma, MGC803 cells of stomach cancer, MDA-MB-231 cells of breast cancer, UOK262 cells of kidney cancer, and A431 cells of skin cancer of human, which were cultured to the logarithmic phase, wash with PBS twice and re-suspend with a blank culture medium. Adjust cell concentration to 1×10^5 cells/mL. Inoculate the cells to transwell cells, 100 μL per well, and meanwhile add micropeptides HMMW I to IX at different doses to every cell. Add 0.6 mL of complete medium containing 10% FBS to the transwell cells to stimulate cell invasion, and culture in 5% CO2 at 37 DEG C. for 24 h. Discard the medium in the wells, fix with 90% alcohol at room temperature for 30 min, stain with 0.1% crystal violet at room temperature for 10 min, rinse with clear water, gently wipe off the non-invaded cells in the upper layer with a cotton swab, observe under a microscope and select four fields of view to take pictures and count. Calculate the invasion inhibition rate (IIR) of the cells according to the following formula:
(§2) [formula] where Ntest is the number of invaded cells in the test groups (the groups at a dose of 1, 4 or 16 μM in the table), Ncontrol is the number of invaded cells in the blank control groups (the groups at a dose of 0 μM in the table). The test was repeated independently three times. Mean±SD was calculated based on the test results. Statistical t test was done. Value P was used to express statistical difference. The statistical significance of the results is a method for estimating how true the results are (the totality can be represented), *P<0.05 means significant difference, and **P<0.01 means very significant difference.

[2] = system: SW579 cells of thyroid cancer; test: Matrigel transwell invasion test
Protocol: as §1, §2

[3] = system: MGC803 cells of stomach cancer; test: Matrigel transwell invasion test
Protocol: as §1, §2

[4] = system: SCC4 cells of head and neck cancer; test: Matrigel transwell invasion test
Protocol: as §1, §2

[5] = system: TE13 cells of esophageal squamous cell carcinoma; test: Matrigel transwell invasion test
Protocol: as §1, §2

[6] = system: A431 cells of skin cancer; test: Matrigel transwell invasion test
Protocol: as §1, §2

[7] = system: A549 cells of lung cancer; test: Matrigel transwell invasion test
Protocol: as §1, §2

[8] = system: UOK262 cells of kidney cancer; test: Matrigel transwell invasion test
Protocol: as §1, §2

[9] = system: MDA-MB-231 cells of breast cancer; test: transwell migration test
[10] = system: SW579 cells of thyroid cancer; test: transwell migration test
[11] = system: MGC803 cells of stomach cancer; test: transwell migration test
[12] = system: TE13 cells of esophageal squamous cell carcinoma; test: transwell migration test
[13] = system: A431 cells of skin cancer; test: transwell migration test
[14] = system: A549 cells of lung cancer; test: transwell migration test
[15] = system: UOK262 cells of kidney cancer; test: transwell migration test

Substance: MERAGVPGFSPRRSSVEAKMQSTSCSVRKSSTVTAWPAVVLLLHTSKDDEE-OH [HMMW-II]
- invasion inhibition rate ([1]; dose 1 μM): 25.93%
- invasion inhibition rate ([1]; dose 4 μM): 47.75%
- invasion inhibition rate ([1]; dose 16 μM): 71.52%
- invasion inhibition rate ([2]; dose 1 μM): 22.13%
- invasion inhibition rate ([2]; dose 4 μM): 45.78%
- invasion inhibition rate ([2]; dose 16 μM): 66.73%
- invasion inhibition rate ([3]; dose 1 μM): 27.52%
- invasion inhibition rate ([3]; dose 4 μM): 51.04%
- invasion inhibition rate ([3]; dose 16 μM): 66.51%
- invasion inhibition rate ([4]; dose 1 μM): 21.72%
- invasion inhibition rate ([4]; dose 4 μM): 45.14%
- invasion inhibition rate ([4]; dose 16 μM): 73.80%
- invasion inhibition rate ([5]; dose 1 μM): 21.41%
- invasion inhibition rate ([5]; dose 4 μM): 43.46%
- invasion inhibition rate ([5]; dose 16 μM): 64.56%
- invasion inhibition rate ([6]; dose 1 μM): 31.71%
- invasion inhibition rate ([6]; dose 4 μM): 53.41%
- invasion inhibition rate ([6]; dose 16 μM): 68.25%
- invasion inhibition rate ([7]; dose 1 μM): 33.25%
- invasion inhibition rate ([7]; dose 4 μM): 55.12%
- invasion inhibition rate ([7]; dose 16 μM): 65.09%
- invasion inhibition rate ([8]; dose 1 μM): 34.70%
- invasion inhibition rate ([8]; dose 4 μM): 54.16%
- invasion inhibition rate ([8]; dose 16 μM): 65.64%
- migration inhibition rate ([9]; dose 1 μM): 27.07%
- migration inhibition rate ([9]; dose 4 μM): 51.24%
- migration inhibition rate ([9]; dose 16 μM): 73.18%
- migration inhibition rate ([10]; dose 1 μM): 18.80%
- migration inhibition rate ([10]; dose 4 μM): 50.13%
- migration inhibition rate ([10]; dose 16 μM): 71.92%
- migration inhibition rate ([11]; dose 1 μM): 25.64%
- migration inhibition rate ([11]; dose 4 μM): 52.41%
- migration inhibition rate ([11]; dose 16 μM): 73.82%
- migration inhibition rate ([12]; dose 1 μM): 22.74%
- migration inhibition rate ([12]; dose 4 μM): 40.23%
- migration inhibition rate ([12]; dose 16 μM): 65.31%
- migration inhibition rate ([13]; dose 1 μM): 31.14%
- migration inhibition rate ([13]; dose 4 μM): 53.12%
- migration inhibition rate ([13]; dose 16 μM): 71.12%
- migration inhibition rate ([14]; dose 1 μM): 34.01%
- migration inhibition rate ([14]; dose 4 μM): 52.91%
- migration inhibition rate ([14]; dose 16 μM): 72.36%
- migration inhibition rate ([15]; dose 1 μM): 16.29%
- migration inhibition rate ([15]; dose 4 μM): 41.28%
- migration inhibition rate ([15]; dose 16 μM): 70.43%

Substance: MERAGVPGFSPRRSSVEAKMQSTSCSVRKSSTVTAWPAVVLLLSWGKDDEE-OH [HMMW-IV]
- invasion inhibition rate ([1]; dose 1 μM): 24.91%
- invasion inhibition rate ([1]; dose 4 μM): 46.73%
- invasion inhibition rate ([1]; dose 16 μM): 71.64%
- invasion inhibition rate ([2]; dose 1 μM): 23.10%
- invasion inhibition rate ([2]; dose 4 μM): 46.71%
- invasion inhibition rate ([2]; dose 16 μM): 67.72%
- invasion inhibition rate ([3]; dose 1 μM): 23.50%
- invasion inhibition rate ([3]; dose 4 μM): 54.21%
- invasion inhibition rate ([3]; dose 16 μM): 63.49%
- invasion inhibition rate ([4]; dose 1 μM): 22.79%
- invasion inhibition rate ([4]; dose 4 μM): 47.34%
- invasion inhibition rate ([4]; dose 16 μM): 74.40%
- invasion inhibition rate ([5]; dose 1 μM): 22.40%
- invasion inhibition rate ([5]; dose 4 μM): 42.42%
- invasion inhibition rate ([5]; dose 16 μM): 67.51%
- invasion inhibition rate ([6]; dose 1 μM): 36.25%
- invasion inhibition rate ([6]; dose 4 μM): 57.19%
- invasion inhibition rate ([6]; dose 16 μM): 71.36%
- invasion inhibition rate ([7]; dose 1 μM): 34.22%
- invasion inhibition rate ([7]; dose 4 μM): 56.11%
- invasion inhibition rate ([7]; dose 16 μM): 65.24%
- invasion inhibition rate ([8]; dose 1 μM): 38.40%
- invasion inhibition rate ([8]; dose 4 μM): 58.36%
- invasion inhibition rate ([8]; dose 16 μM): 67.62%
- migration inhibition rate ([9]; dose 1 μM): 29.06%
- migration inhibition rate ([9]; dose 4 μM): 51.34%
- migration inhibition rate ([9]; dose 16 μM): 73.38%
- migration inhibition rate ([10]; dose 1 μM): 18.81%
- migration inhibition rate ([10]; dose 4 μM): 50.03%
- migration inhibition rate ([10]; dose 16 μM): 71.91%
- migration inhibition rate ([11]; dose 1 μM): 25.60%
- migration inhibition rate ([11]; dose 4 μM): 52.45%
- migration inhibition rate ([11]; dose 16 μM): 74.80%
- migration inhibition rate ([12]; dose 1 μM): 22.76%
- migration inhibition rate ([12]; dose 4 μM): 41.29%
- migration inhibition rate ([12]; dose 16 μM): 65.32%
- migration inhibition rate ([13]; dose 1 μM): 32.19%
- migration inhibition rate ([13]; dose 4 μM): 54.17%
- migration inhibition rate ([13]; dose 16 μM): 71.24%
- migration inhibition rate ([14]; dose 1 μM): 33.00%
- migration inhibition rate ([14]; dose 4 μM): 52.91%
- migration inhibition rate ([14]; dose 16 μM): 71.46%
- migration inhibition rate ([15]; dose 1 μM): 16.32%
- migration inhibition rate ([15]; dose 4 μM): 41.38%
- migration inhibition rate ([15]; dose 16 μM): 70.47%

Substance: MERAGVPGFSPRRSSVEAKMQSTSCSVRKSSTVTAWPAVVLLLSWGQRDEE-OH [HMMW-VI]
- invasion inhibition rate ([1]; dose 1 μM): 24.83%
- invasion inhibition rate ([1]; dose 4 μM): 46.57%
- invasion inhibition rate ([1]; dose 16 μM): 71.43%
- invasion inhibition rate ([2]; dose 1 μM): 23.29%
- invasion inhibition rate ([2]; dose 4 μM): 46.63%
- invasion inhibition rate ([2]; dose 16 μM): 67.58%
- invasion inhibition rate ([3]; dose 1 μM): 23.42%
- invasion inhibition rate ([3]; dose 4 μM): 54.19%
- invasion inhibition rate ([3]; dose 16 μM): 63.35%
- invasion inhibition rate ([4]; dose 1 μM): 22.83%
- invasion inhibition rate ([4]; dose 4 μM): 47.82%
- invasion inhibition rate ([4]; dose 16 μM): 74.16%
- invasion inhibition rate ([5]; dose 1 μM): 22.25%
- invasion inhibition rate ([5]; dose 4 μM): 42.39%
- invasion inhibition rate ([5]; dose 16 μM): 67.47%
- invasion inhibition rate ([6]; dose 1 μM): 36.83%
- invasion inhibition rate ([6]; dose 4 μM): 57.35%
- invasion inhibition rate ([6]; dose 16 μM): 71.16%
- invasion inhibition rate ([7]; dose 1 μM): 34.15%
- invasion inhibition rate ([7]; dose 4 μM): 56.32%
- invasion inhibition rate ([7]; dose 16 μM): 65.35%
- invasion inhibition rate ([8]; dose 1 μM): 38.15%
- invasion inhibition rate ([8]; dose 4 μM): 58.28%
- invasion inhibition rate ([8]; dose 16 μM): 67.51%
- migration inhibition rate ([9]; dose 1 μM): 27.06%
- migration inhibition rate ([9]; dose 4 μM): 50.34%
- migration inhibition rate ([9]; dose 16 μM): 74.38%
- migration inhibition rate ([10]; dose 1 μM): 19.81%
- migration inhibition rate ([10]; dose 4 μM): 52.03%
- migration inhibition rate ([10]; dose 16 μM): 70.91%
- migration inhibition rate ([11]; dose 1 μM): 26.64%
- migration inhibition rate ([11]; dose 4 μM): 51.45%
- migration inhibition rate ([11]; dose 16 μM): 72.80%
- migration inhibition rate ([12]; dose 1 μM): 21.76%
- migration inhibition rate ([12]; dose 4 μM): 40.21%
- migration inhibition rate ([12]; dose 16 μM): 66.32%
- migration inhibition rate ([13]; dose 1 μM): 33.19%
- migration inhibition rate ([13]; dose 4 μM): 55.17%
- migration inhibition rate ([13]; dose 16 μM): 70.23%
- migration inhibition rate ([14]; dose 1 μM): 32.00%
- migration inhibition rate ([14]; dose 4 μM): 51.90%
- migration inhibition rate ([14]; dose 16 μM): 70.46%
- migration inhibition rate ([15]; dose 1 μM): 17.32%
- migration inhibition rate ([15]; dose 4 μM): 40.38%
- migration inhibition rate ([15]; dose 16 μM): 72.47%
